Here are results for one molecule from patent US8518953B2, “Aminopyrimidines useful as inhibitors of protein kinases” (Vertex Pharmaceuticals Incorporated, priority 2007, dated 2013).

One experiment concerns rats subjected to MCAO. In words: Post Stroke Recovery MCAO Model: Tray Reaching. It counts as in vivo, rat. The conditions noted are these: 7 and 14 days after stroke, compared with vehicle treatment. An excerpt: Adult male Wistar rats are pre-trained on a battery of behavioral tests including: tray reach, gridwalk, forelimb asymmetry (cylinder bracing), forelimb inhibition (swim test) (see below for detailed description of tests). Following pre-stroke behavioral assessment the rats receive surgery during which a stroke is induced. The rats are pseudo-randomly divided into 5 equal groups (n=12) ensuring an equal number of right and left strokes within each treatment group. The first group receives sham surgery with vehicle as treatment. Administration of the test compound and vehicle (dose, route, timing) is determined by the sponsor. The core body temperature is maintained at 37° C. (+/−1°).
Following surgery all animals are behaviorally assessed 1, 7, and 14 d post-stroke. At the conclusion of behavioral assessment all rats undergo an MRI to determine infarct volume. […]
Each animal is weighed (average weights were 340 g) and then anesthetized with isoflurane (4% isoflurane carried on 2 l/min medical grade oxygen to induce surgical plane and then 2% with 2 l/min oxygen to maintain a surgical plane). […] Rectal temperature is monitored and maintained at 37 C+/−1° C. for the duration of the surgery and until the rat is awake and mobile (approximately 3 hr). […]
Forepaw use is measured with a procedure that is adapted from the method devised by Whishaw, O'Connor, and Dunnett (1986). […]

For experiment [1], the system named is β-catenin dependent TCF/LEF transcriptional activity. As to the kind of experiment: β-Catenin Stabilization Protocol (β-lactamase reporter assay in Jurkat cells). The format is cell-based. To be noted: Homo sapiens, 460/530 ratio, read-out: Beta Catenin IC50. An excerpt: GSK-3 phosphorylation of β-catenin targets it to the proteosome for degradation. Inhibition of GSK-3 results in accumulation of β-catenin in the cytosol of cells which through interaction with the transcription factor TCF/LEF translocates to the nucleus and drives the transcription of Wnt-dependent genes. The assay is designed to determine the level of β-catenin dependent TCF/LEF transcriptional activity in a quantitative manner through the use of a β-lactamase reporter assay in Jurkat cells dosed with a compound.
Jurkat β-catenin cells are starved overnight in assay media (1% FBS, 1× Penstrep, RPMI) in the flask. The next day Jurkat β-catenin cells are seeded in 96 well flat bottom plates at a density of 50,000 cells/well in assay media in a volume of 100 ul. The compound is added to the well at a final DMSO concentration of 0.75% and incubated at 37° C. o/n. The next day, 20 uL of 6×CCF4 dye is added to the wells and incubated at room temperature for 1-2 hours. Plates are read on the Cytofluor 4000 series multiwell plate reader and the 460/530 ratio is determined.
Background: In a reporter assay the amount or activity of a reporter protein is the signal.

Another experiment addresses T1, GSK-3β (AA 1-420) (Homo sapiens, UniProt P49841).
T1 construct: GSK-3β (AA 1-420)
As to the kind of experiment: GSK-3 Inhibition Assay (standard coupled enzyme system). It counts as biochemical. To be noted: 20 μM ATP, 300 μM peptide, 20 nM GSK-3β, 30° C. How it is done:
Compounds of the present invention were screened for their ability to inhibit GSK-3β (AA 1-420) activity using a standard coupled enzyme system (Fox et al., Protein Sci. 1998, 7, 2249). Reactions were carried out in a solution containing 100 mM HEPES (pH 7.5), 10 mM MgCl2, 25 mM NaCl, 300 μM NADH, 1 mM DTT and 1.5% DMSO. Final substrate concentrations in the assay were 20 μM ATP (Sigma Chemicals, St Louis, Mo.) and 300 μM peptide (American Peptide, Sunnyvale, Calif.). Reactions were carried out at 30° C. and 20 nM GSK-3β. Final concentrations of the components of the coupled enzyme system were 2.5 mM phosphoenolpyruvate, 300 μM NADH, 30 μg/ml pyruvate kinase and 10 μg/ml lactate dehydrogenase.
An assay stock buffer solution was prepared containing all of the reagents listed above with the exception of ATP and the test compound of the present invention. The assay stock buffer solution (175 μl) was incubated in a 96 well plate with 5 μl of the test compound of the present invention at final concentrations spanning 0.002 μM to 30 μM at 30° C. for 10 min. […] Rates of reaction were obtained using a Molecular Devices Spectramax plate reader (Sunnyvale, Calif.) over 10 min at 30° C. The Ki values were determined from the rate data as a function of inhibitor concentration.

T1 sequence (P49841 whole entry, species assumed, the tested form may be a part): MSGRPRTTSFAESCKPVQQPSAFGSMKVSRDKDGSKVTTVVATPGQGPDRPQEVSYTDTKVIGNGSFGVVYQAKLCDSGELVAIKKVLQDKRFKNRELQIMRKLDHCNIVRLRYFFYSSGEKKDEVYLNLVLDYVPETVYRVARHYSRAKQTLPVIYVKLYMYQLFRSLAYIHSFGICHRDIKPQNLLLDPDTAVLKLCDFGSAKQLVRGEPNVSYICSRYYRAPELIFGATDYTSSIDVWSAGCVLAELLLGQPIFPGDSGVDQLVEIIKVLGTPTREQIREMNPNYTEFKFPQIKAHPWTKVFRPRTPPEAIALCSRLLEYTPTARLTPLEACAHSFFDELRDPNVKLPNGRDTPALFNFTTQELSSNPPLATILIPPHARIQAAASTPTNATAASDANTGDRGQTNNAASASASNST

Broadly, the IC50 is the concentration needed to halve the response being measured. By Ki is commonly meant the dissociation constant of the complex between target and ligand, obtained from inhibition or displacement. `Cc1nc(-c2ccccc2Cl)nc(Nc2n[nH]c3ncc(F)cc23)c1C` [Compound I-1, N-(2-(2-chlorophenyl)-5,6-dimethylpyrimidin-4-yl)-5-fluoro-1H-pyrazolo[3,4-b]pyridin-3-amine]: in the experiment with rats subjected to MCAO, the “deficit in reaching performance (tray reaching)” value is on record as “significantly ameliorated this deficit”. Besides, the half-inhibitory concentration (IC50) in experiment [1] came to 230 nM. Besides, the Ki at GSK-3β (AA 1-420) is under 5 nM.
